This experiment deals with T1, recombinant human MCHR1 receptors (Homo sapiens, UniProt Q99705).
T1 construct: expressed in transfected cells
The experiment is described as follows: MCHR Filter Binding Assay (competition binding with [Phe13[125I]Tyr19]-MCH). How it is done: Competition binding assay was conducted in MultiScreen […] glass fiber type B filter plates (96-well, Millipore). The MultiScreen plates were pretreated by incubation with 0.5% polyvinylpyrrolidone solution containing 1% BSA and 0.1% tween-20 for 12 hours at 4° C. and washed five times with ice-cold 10 mM Tris buffer, pH 7.5, followed by incubation with 200 µL of binding buffer (50 mM HEPES, 2.5 mM CaCl2, 0.05 mM BSA, 1 mM phenanthroline, 0.03 mM Triton X-100) for 5 min at room temperature and plates were drained before the binding reactions. The binding assay was performed by pre-incubating 2.8 µg of membranes from CHO-K1 cells stably expressing the recombinant human MCHR1 receptors, and various concentrations (final concentration 0.059 nM to 45 µM) of unlabeled MCH or antagonists in binding buffer for 15 min at room temperature. The competition reaction was started by adding final concentration (0.2 nM) [Phe^13[^125I]Tyr^19]-MCH (PerkinElmer). The final volume of the reaction was 90 µL per well. After 60 min incubation time at room temperature the reaction was stopped by rapid filtration over 96-well filter plates. Following termination of the binding reactions, the filters were washed with ice-cold binding buffer (4×200 µL), and were air dried for 30 min. Scintillation cocktail (60 µL) was added to each well and radioactivity bound to the plates was determined using a Micro-beta plate reader (Wallace/PerkinElmer). The inhibition potency of antagonist was expressed as IC50, the concentration of compound at which the binding of radio labeled MCH to MCHR1 was inhibited by 50%.

Setting [1] is: membranes from CHO-K1 cells stably expressing human MCHR1, 0.2 nM radiolabeled MCH, read-out: Activity in MCHR binding assays (IC50 class).
Where [2] appears, read: inhibition of binding of MCH to MCHR.
[3] abbreviates: inhibition of binding of MCH to MCHR, read-out: MCHR IC50.

Structures are written as SMILES. Where a name gives a salt, the structure may show the parent alone. Read-outs that look alike come from different tables or passages of the source.

In general, IC50 refers to the concentration that inhibits the measured activity by half. As usually defined, the Ki is a dissociation constant, usually derived from enzyme kinetics or from competition with a known ligand.

T1 sequence (Q99705 whole entry): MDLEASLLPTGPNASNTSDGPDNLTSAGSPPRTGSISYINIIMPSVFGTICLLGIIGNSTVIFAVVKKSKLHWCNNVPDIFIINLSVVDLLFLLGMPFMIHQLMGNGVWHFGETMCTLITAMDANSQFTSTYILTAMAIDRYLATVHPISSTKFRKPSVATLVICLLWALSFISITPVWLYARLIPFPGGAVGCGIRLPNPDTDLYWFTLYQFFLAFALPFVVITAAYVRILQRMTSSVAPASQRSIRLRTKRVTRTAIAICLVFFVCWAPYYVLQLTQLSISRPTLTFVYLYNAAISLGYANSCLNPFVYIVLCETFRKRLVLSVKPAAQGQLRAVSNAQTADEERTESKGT

For `Cc1ccc2c(c1)nc(C)n2[C@@H]1CC[C@@H](NCC2Cc3ccc(Cl)cc3C2)C1` (relative stereo) [Example 3, trans-(5-Chloro-indan-2-ylmethyl)-[3-(2,5-dimethyl-benzoimidazol-1-yl)-cyclopentyl]-amine], under setting [1], the IC50 fell in the range of 0.1 to 1 µM.

In the case of `CC(C)(O)c1nc2cc(Cl)ccc2n1[C@H]1CC[C@@H](NCC2Cc3ccc(C(F)(F)F)cc3C2)CC1` (relative stereo) [Example 8, cis-2-(5-Chloro-1-{4-[(5-trifluoromethyl-indan-2-ylmethyl)-amino]-cyclohexyl}-1H-benzoimidazol-2-yl)-propan-2-ol], the IC50 under setting [1] was 0.1 to 1 µM.

For the molecule `Cc1ccc2c(c1)nc(C)n2[C@H]1CC[C@@H](NC2Cc3ccccc3C2)CC1` [Example 1, cis-4-(2,5-Dimethyl-benzoimidazol-1-yl)-cyclohexyl]-indan-2-yl-amine; hydrochloride], the IC50 under setting [1] is 0.1 to 1 µM.

Regarding `Cc1ccc2c(c1)nc(C)n2[C@@H]1CC[C@@H](NC[C@H]2Cc3ccc(Br)cc3C2)C1` [Example 2, trans-(S)-(5-Bomo-indan-2-ylmethyl)-[3-(2,5-dimethyl-benzoimidazol-1-yl)-cyclopentyl]-amine], the IC50 under setting [1] was in the range of 0.1 to 1 µM.

`Cc1ccc2c(c1)nc(C)n2[C@H]1CC[C@@H](NC[C@H]2Cc3ccc(Br)cc3C2)CC1` [Example 4, cis-(S)-(5-Bromo-indan-2-ylmethyl)-[4-(2,5-dimethyl-benzoimidazole-1-yl)-cyclohexyl]-amine hydrochloride]: the IC50 under setting [1] was in the range of 0.01 to 0.1 µM.

Consider `Cc1ccc2c(c1)nc(C)n2[C@@H]1CC[C@H](NC[C@H]2Cc3ccc(Br)cc3C2)C1` [Example 5, cis-(S)-(5-Bromo-indan-2-ylmethyl)-[3-(2,5-dimethyl-benzoimidazol-1-yl)-cyclopentyl]-amine], for which, under setting [1], the IC50 fell in the range of 0.1 to 1 µM.

Take `Cc1ccc2c(c1)nc(C)n2[C@H]1CC[C@@H](NC2Cc3ccc(Cl)cc3C2)CC1` (stereo partly drawn) [Example 6, cis-(5-Chloro-indan-2-yl)-[4-(2,5-dimethyl-benzoimidazol-1-yl)-cyclohexyl]-amine; hydrochloride]: under setting [1], the IC50 was 0.01 to 0.1 µM.

Take `CC(C)(O)c1nc2cc(Cl)ccc2n1[C@H]1CC[C@@H](NC[C@H]2Cc3ccc(Br)cc3C2)CC1` [Example 7, cis-(S)-2-(1-{4-[(5-Bromo-indan-2-ylmethyl)-amino]-cyclohexyl}-5-chloro-1H-benzoimidazol-2-yl)-propan-2-ol]: under setting [2], the Ki came out at 0.019 µM. Besides, the IC50 under setting [3] came to 0.024 µM and the IC50 under setting [1] is 0.01 to 0.1 µM.

As to `CC(C)(O)c1nc2cc(Cl)ccc2n1[C@H]1CC[C@@H](NCC2Cc3ccccc3C2)CC1` [Example 9, cis-2-(5-Chloro-1-{4-[(indan-2-ylmethyl)-amino]-cyclohexyl}-1H-benzoimidazol-2-yl)-propan-2-ol], the IC50 under setting [1] was in the range of 0.01 to 0.1 µM.

For the molecule `CC(C)(O)c1nc2cc(Cl)ccc2n1[C@H]1CC[C@@H](NCC2Cc3ccc(Cl)cc3C2)CC1` (stereo partly drawn) [Example 10, cis-2-(5-Chloro-1-{4-[(5-chloro-indan-2-ylmethyl)-amino]-cyclohexyl}-1H-benzoimidazol-2-yl)-propan-2-ol], the IC50 under setting [1] fell in the range of 0.01 to 0.1 µM.

`Cc1ccc2c(c1)nc(C)n2[C@H]1CC[C@@H](NCC2Cc3ccc(Cl)cc3C2)CC1` (stereo partly drawn) [Example 11, cis-(5-Chloro-indan-2-ylmethyl)-[4-(2,5-dimethyl-benzoimidazol-1-yl)-cyclohexyl]-amine]: the IC50 under setting [1] lay within 0.01 to 0.1 µM.

For the molecule `Cc1ccc2c(c1)nc(C)n2[C@H]1CC[C@@H](NCC2Cc3ccc(C(F)(F)F)cc3C2)CC1` (stereo partly drawn) [Example 12, cis-[4-(2,5-Dimethyl-benzoimidazol-1-yl)-cyclohexyl]-(5-trifluoromethyl-indan-2-ylmethyl)-amine], the IC50 under setting [1] lay within 0.1 to 1 µM.

Take `Cc1ccc2c(c1)nc(C)n2[C@H]1CC[C@@H](NCC2Cc3ccccc3C2)CC1` [Example 13, cis-[4-(2,5-Dimethyl-benzoimidazol-1-yl)-cyclohexyl]-indan-2-ylmethyl-amine]: under setting [1], the IC50 was in the range of 0.1 to 1 µM.

Regarding `CC(C)(O)c1nc2cc(Cl)ccc2n1[C@H]1CC[C@@H](NC[C@H]2Cc3ccc(C#N)cc3C2)CC1` [Example 14, cis-(S)-2-({4-[5-Chloro-2-(1-hydroxy-1-methyl-ethyl)-benzoimidazol-1-yl]-cyclohexylamino}-methyl)-indan-5-carbonitrile], under setting [2], the Ki was 0.0018 µM. Also, the IC50 reads like this: under setting [3], 0.0022 µM; under setting [1], less than 0.01 µM.

In the case of `Cc1ccc2c(c1)nc(C)n2[C@H]1CC[C@@H](NC[C@H]2Cc3ccc(C#N)cc3C2)CC1` [Example 15, cis-(S)-2-{[4-(2,5-Dimethyl-benzoimidazol-1-yl)-cyclohexylamino]-methyl}-indan-5-carbonitrile], under setting [1], the IC50 lay in the range of 0.01 to 0.1 µM.

As for `Cc1ccc2c(c1)nc(C(C)(C)O)n2[C@H]1CC[C@@H](NC[C@H]2Cc3ccc(C#N)cc3C2)CC1` [Example 16, cis-(S)-2-({4-[2-(1-Hydroxy-1-methyl-ethyl)-5-methyl-benzoimidazol-1-yl]-cyclohexylamino}-methyl)-indan-5-carbonitrile], under setting [1], the IC50 was less than 0.01 µM.

For the molecule `Cc1ccc2c(c1)nc(C(C)(C)O)n2[C@H]1CC[C@H](NC[C@H]2Cc3ccc(C#N)cc3C2)CC1` [Example 17, trans-(S)-2-({4-[2-(1-Hydroxy-1-methyl-ethyl)-5-methyl-benzoimidazol-1-yl]-cyclohexylamino}-methyl)-indan-5-carbonitrile], the IC50 under setting [1] fell in the range of 0.1 to 1 µM.

For the molecule `Cc1ccc2c(c1)nc(C(C)(C)O)n2[C@H]1CC[C@@H](NCC2Cc3ccc(F)cc3C2)CC1` (stereo partly drawn) [Example 18, cis-2-(1-{4-[(5-Fluoro-indan-2-ylmethyl)-amino]-cyclohexyl}-5-methyl-1H-benzoimidazol-2-yl)-propan-2-ol], under setting [1], the IC50 lay in the range of 0.01 to 0.1 µM.

`Cc1ccc2c(c1)nc(C(C)(C)O)n2[C@H]1CC[C@H](NCC2Cc3ccc(F)cc3C2)CC1` (stereo partly drawn) [Example 19, trans-2-(1-{4-[(5-Fluoro-indan-2-ylmethyl)-amino]-cyclohexyl}-5-methyl-1H-benzoimidazol-2-yl)-propan-2-ol]: the IC50 under setting [1] fell in the range of 0.1 to 1 µM.

`Cc1ccc2c(c1)nc(C(C)(C)O)n2[C@H]1CC[C@@H](NCC2Cc3ccc(Cl)cc3C2)CC1` (stereo partly drawn) [Example 20, cis-2-(1-{4-[(5-Chloro-indan-2-ylmethyl)-amino]-cyclohexyl}-5-methyl-1H-benzoimidazol-2-yl)-propan-2-ol]: under setting [2], the Ki amounted to 0.021 µM. Besides, the IC50 under setting [3] came to 0.026 µM and the IC50 under setting [1] was 0.01 to 0.1 µM.

On to `Cc1ccc2c(c1)nc(C(C)(C)O)n2[C@H]1CC[C@H](NCC2Cc3ccc(Cl)cc3C2)CC1` (stereo partly drawn) [Example 21, trans-2-(1-{4-[(5-Chloro-indan-2-ylmethyl)-amino]-cyclohexyl}-5-methyl-1H-benzoimidazol-2-yl)-propan-2-ol], for which the IC50 under setting [1] lay in the range of 0.1 to 1 µM.

Consider `CC(C)(O)c1nc2cc(Cl)ccc2n1[C@H]1CC[C@@H](NC[C@@H]2Cc3ccc(C#N)cc3C2)CC1` [Example 22, cis-(R)-2-({4-[5-Chloro-2-(1-hydroxy-1-methyl-ethyl)-benzoimidazol-1H-yl]-cyclohexylamino}-methyl)-indan-5-carbonitrile], for which the IC50 under setting [1] is less than 0.01 µM.

For `CC(=O)N(C[C@H]1Cc2ccc(C#N)cc2C1)[C@H]1CC[C@@H](n2c(C(C)(C)O)nc3cc(Cl)ccc32)CC1` [Example 23, cis-(S)—N-{4-[5-Chloro-2-(1-hydroxy-1-methyl-ethyl)-benzoimidazol-1-yl]-cyclohexyl}-N-(5-cyano-indan-2-ylmethyl)-acetamide], under setting [2], the Ki came out at 0.154 µM. The IC50 was 0.193 µM under setting [3] and 0.1 to 1 µM under setting [1].

As for `CC(C)(O)c1nc2cc(Cl)ccc2n1[C@H]1CC[C@@H](NC[C@@H]2Cc3ccc(Br)cc3C2)CC1` [Example 24, cis-(R)-2-(1-{4-[(5-Bromo-indan-2-ylmethyl)-amino]-cyclohexyl}-5-chloro-1H-benzoimidazol-2-yl)-propan-2-ol], the IC50 under setting [1] lay in the range of 0.01 to 0.1 µM.

Consider `Cc1nc2cc(C#N)ccc2n1[C@H]1CC[C@@H](NCC2Cc3ccc(Cl)cc3C2)CC1` (stereo partly drawn) [Example 25, cis-1-{4-[(5-Chloro-indan-2-ylmethyl)-amino]-cyclohexyl}-2-methyl-1H-benzoimidazole-5-carbonitrile], for which, under setting [1], the IC50 lay within 0.01 to 0.1 µM.

For the molecule `Cc1nc2cc(F)ccc2n1[C@H]1CC[C@@H](NC[C@H]2Cc3ccc(C#N)cc3C2)CC1` [Example 26, cis-(S)-2-{[4-(5-Fluoro-2-methyl-benzoimidazol-1-yl)-cyclohexylamino]-methyl}-indan-5-carbonitrile], the Ki under setting [2] is 0.002 µM. For the same molecule, the IC50 was 0.003 µM under setting [3] and less than 0.01 µM under setting [1].

The values are drawn from patent US7652053B2, “Diaminocycloalkane MCH receptor antagonists” (Hoffmann-La Roche Inc., priority 2006, dated 2010).
